Literature values, collected in US20110237832A1, “SYNTHESIS OF HDAC INHIBITORS: TRICHOSTATIN A AND ANALOGUES” (University of Notre Dame du Lac, priority 2010, published 2011).

Test system: HDACs
Details: read-out: inhibits the activity of HDACs, IC50 value; in human T cells

- IC50: 0.07 µM
SMILES: CC(/C=C/C(=O)NO)=C\[C@@H](C)C(=O)c1ccc(N(C)C)cc1 [TSA, (+)-Trichostatin A]
